Measurements taken from patent US9624180B2, “Squaric derivatives for the treatment of hepatitis C” (priority 2013, dated 2017).
Like-named read-outs stand apart in the source and are kept apart here.

Tested on: HCV pseudoparticles (genotype 1a HCV E1 and E2 envelope, H77C isolate)
Experiment: HCV pseudoparticle infection assay (luciferase reporter, entry into Huh7 cells)
Assay type: cell-based, HCV genotype 1a
Conditions: Hepatitis C virus, Huh-7, 48 h
[1] = read-out: EC50 (1a, nM), genotype 1a HCV pseudoparticles, Huh7 cells, luciferase 2 days after infection, average of duplicates
[2] = read-out: EC50 (1a, nM), genotype 1a HCV pseudoparticles, Huh7 cells, luciferase 2 days after infection, class symbol

| SMILES | EC50 [1] | EC50 [2] |
| --- | --- | --- |
| O=C(N[C@@H](CCNc1c(NCC2(Cn3ccnc3)CC2)c(=O)c1=O)C(=O)O)c1ccc(Nc2nc(NC3(c4ccc(Cl)cc4)CC3)nc(OCC(F)(F)F)n2)cc1 [Compound 1015] | 6.55 nM | 0.01 to 10 nM |
| COC(=O)[C@H](CNc1c(O)c(=O)c1=O)NC(=O)c1ccc(Nc2nc(NC3(c4ccc(Cl)cc4)CC3)nc(OCC(F)(F)F)n2)cc1 [Compound 1003, (S)-methyl 2-(4-(4-(1-(4-chlorophenyl)cyclopropylamino)-6-(2,2,2-trifluoroethoxy)-1,3,5-triazin-2-ylamino)benzamido)-3-(2-hydroxy-3,4-dioxocyclobut-1-enylamino)propanoate] | 47 nM | 10 to 1000 nM |
| O=C(N[C@@H](CCNc1c(NC2CCCCCC2)c(=O)c1=O)C(=O)NC1CCCCCC1)c1ccc(Nc2nc(NC3(c4ccc(Cl)cc4)CC3)nc(OCC(F)(F)F)n2)cc1 [Compound 1018] | – | 0.01 to 10 nM |
| CC(C)(CNC(=O)c1ccc(Nc2nc(NC3(c4ccc(Cl)cc4)CC3)nc(OCC(F)(F)F)n2)cc1)CNc1c(NC2CCCCCC2)c(=O)c1=O [Compound 1009] | – | 0.01 to 10 nM |
| O=C(N[C@@H](CCNc1c(NCc2ccc(F)cc2F)c(=O)c1=O)C(=O)NCc1ccc(F)cc1F)c1ccc(Nc2nc(NC3(c4ccc(Cl)cc4)CC3)nc(OCC(F)(F)F)n2)cc1 [Compound 1020] | – | 0.01 to 10 nM |
| CC(C)(CNC(=O)c1ccc(Nc2nc(NC3(c4ccc(Cl)cc4)CC3)nc(OCC(F)(F)F)n2)cc1)CNc1c(NCC2CC2)c(=O)c1=O [Compound 1007] | – | 0.01 to 10 nM |
| CC(C)(CNC(=O)c1ccc(Nc2nc(NC3(c4ccc(Cl)cc4)CC3)nc(OCC(F)(F)F)n2)cc1)CNc1c(NCC2(CN3CCCC3)CC2)c(=O)c1=O [Compound 1010] | – | 0.01 to 10 nM |
| CCOc1c(NC[C@H](NC(=O)c2ccc(Nc3nc(NC4(c5ccc(Cl)cc5)CC4)nc(OCC(F)(F)F)n3)cc2)C(=O)O)c(=O)c1=O [Compound 1004, (S)-2-(4-(4-(1-(4-chlorophenyl)cyclopropylamino)-6-(2,2,2-trifluoroethoxy)-1,3,5-triazin-2-ylamino)benzamido)-3-(2-ethoxy-3,4-dioxocyclobut-1-enylamino)propanoic acid] | – | 10 to 1000 nM |
| CC(C)(CNC(=O)c1ccc(Nc2nc(NC3(c4ccc(Cl)cc4)CC3)nc(OCC(F)(F)F)n2)cc1)CNc1c(O)c(=O)c1=O [Compound 1006] | 0.52 nM | 0.01 to 10 nM |
| CC(C)(CNC(=O)c1ccc(Nc2nc(NC3(c4ccc(Cl)cc4)CC3)nc(OCC(F)(F)F)n2)cc1)CNc1c(Nc2ccccc2)c(=O)c1=O [Compound 1013] | – | 0.01 to 10 nM |
| O=C(N[C@@H](CCNc1c(N[C@@H]2C[C@H]3CC[C@@H]2C3)c(=O)c1=O)C(=O)O)c1ccc(Nc2nc(NC3(c4ccc(Cl)cc4)CC3)nc(OCC(F)(F)F)n2)cc1 [Compound 1017] | – | 0.01 to 10 nM |
| CC(C)(CNC(=O)c1ccc(Nc2nc(NC3(c4ccc(Cl)cc4)CC3)nc(OCC(F)(F)F)n2)cc1)CNc1c(NCc2ccc(F)cc2F)c(=O)c1=O [Compound 1008] | 0.05 nM | 0.01 to 10 nM |
| O=C(N[C@@H](CCNc1c(N[C@@H]2C[C@H]3CC[C@@H]2C3)c(=O)c1=O)C(=O)N[C@@H]1C[C@H]2CC[C@@H]1C2)c1ccc(Nc2nc(NC3(c4ccc(Cl)cc4)CC3)nc(OCC(F)(F)F)n2)cc1 [Compound 1019] | – | 10 to 1000 nM |
| CCOc1c(NCC(C)(C)CNC(=O)c2ccc(Nc3nc(NC4(c5ccc(Cl)cc5)CC4)nc(OCC(F)(F)F)n3)cc2)c(=O)c1=O [Compound 1005, 4-((4-((1-(4-chlorophenyl)cyclopropyl)amino)-6-(2,2,2-trifluoroethoxy)-1,3,5-triazin-2-yl)amino)-N-(3-((2-ethoxy-3,4-dioxocyclobut-1-en-1-yl)amino)-2,2-dimethylpropyl)benzamide] | – | 0.01 to 10 nM |
| COC(=O)[C@H](CNc1c(OC)c(=O)c1=O)NC(=O)c1ccc(Nc2nc(NC3(c4ccc(Cl)cc4)CC3)nc(OCC(F)(F)F)n2)cc1 [Compound 1001, (S)-methyl 2-(4-(4-(1-(4-chlorophenyl)cyclopropylamino)-6-(2,2,2-trifluoroethoxy)-1,3,5-triazin-2-ylamino)benzamido)-3-(2-methoxy-3,4-dioxocyclobut-1-enylamino)propanoate] | 117 nM | 10 to 1000 nM |
| O=C(N[C@@H](CCNc1c(NCC2CC2)c(=O)c1=O)C(=O)NCC1CC1)c1ccc(Nc2nc(NC3(c4ccc(Cl)cc4)CC3)nc(OCC(F)(F)F)n2)cc1 [Compound 1011] | 5.98 nM | 0.01 to 10 nM |
| CCOc1c(NC[C@H](NC(=O)c2ccc(Nc3nc(NC4(c5ccc(Cl)cc5)CC4)nc(OCC(F)(F)F)n3)cc2)C(=O)OC)c(=O)c1=O [Compound 1002, (S)-methyl 2-(4-(4-(1-(4-chlorophenyl)cyclopropylamino)-6-(2,2,2-trifluoroethoxy)-1,3,5-triazin-2-ylamino)benzamido)-3-(2-ethoxy-3,4-dioxocyclobut-1-enylamino)propanoate] | – | 10 to 1000 nM |
| O=C(N[C@@H](CCNc1c(NC2CCCCCCC2)c(=O)c1=O)C(=O)O)c1ccc(Nc2nc(NC3(c4ccc(Cl)cc4)CC3)nc(OCC(F)(F)F)n2)cc1 [Compound 1012] | – | 0.01 to 10 nM |
| O=C(N[C@@H](CCNc1c(Nc2ccccc2)c(=O)c1=O)C(=O)O)c1ccc(Nc2nc(NC3(c4ccc(Cl)cc4)CC3)nc(OCC(F)(F)F)n2)cc1 [Compound 1016] | – | 0.01 to 10 nM |
| CCOC(=O)[C@H](CCNc1c(NC2CCCCCC2)c(=O)c1=O)NC(=O)c1ccc(Nc2nc(NC3(c4ccc(Cl)cc4)CC3)nc(OCC(F)(F)F)n2)cc1 [Compound 1021] | 1.24 nM | 0.01 to 10 nM |
| O=C(N[C@@H](CCNc1c(Nc2ccccc2)c(=O)c1=O)C(=O)Nc1ccccc1)c1ccc(Nc2nc(NC3(c4ccc(Cl)cc4)CC3)nc(OCC(F)(F)F)n2)cc1 [Compound 1014] | – | 10 to 1000 nM |
